Assay results taken from the NIST ThermoML archive (doi:10.1021/je900307z).
Numbers after ± are expanded uncertainties.

How the values were obtained:
[1] = 101.33 kPa, Liquid; for viscosity: Capillary tube (Ostwald / Ubbelohde) method; for mass density: Vibrating tube method
[2] = molar heat capacity at constant pressure; conditions: 101.33 kPa, Liquid, Small sample (50 mg) DSC
[3] = refractive index (Na D-line) (dimensionless); conditions: 101.33 kPa, Liquid, Standard Abbe refractometry

Row | Structure (SMILES) | viscosity ([1]; 293.15 K) [mPa·s] | mass density ([1]; 293.15 K) [kg/m3] | viscosity ([1]; 313.15 K) [mPa·s] | mass density ([1]; 313.15 K) [kg/m3] | molar heat capacity at constant pressure ([2]; 288.15 K) [J/K/mol] | molar heat capacity at constant pressure ([2]; 293.15 K) [J/K/mol] | molar heat capacity at constant pressure ([2]; 298.15 K) [J/K/mol] | molar heat capacity at constant pressure ([2]; 303.15 K) [J/K/mol] | molar heat capacity at constant pressure ([2]; 308.15 K) [J/K/mol] | molar heat capacity at constant pressure ([2]; 313.15 K) [J/K/mol] | molar heat capacity at constant pressure ([2]; 318.15 K) [J/K/mol] | molar heat capacity at constant pressure ([2]; 323.15 K) [J/K/mol] | refractive index ([3]; 293.15 K) | refractive index ([3]; 313.15 K)
1 | CC1COC(=O)O1 (configuration not stated) [4-methyl-1,3-dioxolan-2-one] | 2.778 ± 0.022 | 1204.66 ± 0.18 | 1.909 ± 0.017 | 1183.06 ± 0.17 | 166.28 ± 3.3 | 167.97 ± 3.4 | 169.48 ± 3.4 | 170.79 ± 3.4 | 172.22 ± 3.4 | 174.14 ± 3.5 | 175.87 ± 3.5 | 177.45 ± 3.5 | 1.4223 ± 0.0006 | 1.4149 ± 0.0006
2 | CCOC(=O)OCC [diethyl carbonate] | 0.817 ± 0.008 | 975.84 ± 0.3 | 0.623 ± 0.007 | 952.39 ± 0.3 | 210.2 ± 4.2 | 211.49 ± 4.2 | 212.46 ± 4.2 | 213.83 ± 4.3 | 214.89 ± 4.3 | 215.8 ± 4.3 | 218.55 ± 4.4 | 220.32 ± 4.4 | 1.3858 ± 0.0007 | 1.3764 ± 0.0007
3 | COC(=O)OC [dimethyl carbonate] | 0.629 ± 0.006 | 1069.8 ± 0.37 | 0.494 ± 0.005 | 1043.25 ± 0.35 | 165.51 ± 3.3 | 166.07 ± 3.3 | 167.1 ± 3.3 | 168.48 ± 3.4 | 169.72 ± 3.4 | 170.83 ± 3.4 | 172.18 ± 3.4 | 173.68 ± 3.5 | 1.3689 ± 0.0006 | 1.3604 ± 0.0006
